Consider two compounds from US20230159527A1, “COMPOUNDS AS BCL-2 INHIBITORS” (Fochon Pharmaceuticals, Ltd., priority 2020, published 2023).

Common to all, as to format: cell-based
In experiment [1] the test system is Toledo cells. The experiment in a line: Cell proliferation assay, Toledo cells (MTS, 72 h). As to conditions: Homo sapiens, Toledo cells, MTS, read-out: Toledo IC50. The essentials: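 IC50 was derived from 490 nm absorbance after a 2 h MTS step. Before that, compounds at 1.5–10000 nM final (nine points) acted on Toledo cells for 72 h at 37 °C, 5% CO2. Cells were seeded at 30000/well in 10% FBS RPMI-1640 and rested 4 h before dosing.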

The test system of experiment [2] is DoHH2 cells. The experiment in a line: Cell proliferation assay, DoHH2 cells (MTS, 120 h). As to conditions: Homo sapiens, DOHH-2. In short, it runs like this:
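DoHH2 cells in RPMI-1640 with 10% FBS were plated at 5000/well and rested 4 h. They were then exposed to compound at nine final concentrations (10000 to 1.5 nM) for 120 h at 37 °C. Viability was read by MTS (2 h, A490) and IC50 derived by curve fitting.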

Experiment [3] deals with RS4;11 cells. The experiment in a line: Cell proliferation assay, RS4;11 cells (MTS, 72 h). As to conditions: Homo sapiens, RS4;11 cell proliferation. In short, it runs like this: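 RS4;11 cells (30000/well, RPMI-1640 plus 10% FBS) treated with compounds at 1.5-10000 nM for 72 h at 37° C, 5% CO2. Viability by MTS (2 h), absorbance at 490 nm with 650 nm reference; IC50 from proliferation inhibition.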

Some results are limits rather than exact numbers.

Regarding `O=C(NS(=O)(=O)c1cnc(NCC2C3COCC23)c([N+](=O)[O-])c1)c1ccc(N2CCC3(CC2)CC(N2CCC4C[C@]42c2ccccc2C2CC2)C3)cc1Oc1cnc2[nH]ccc2c1` (single isomer, unassigned) [Example A-97b, 2-((1H-pyrrolo[2,3-b]pyridin-5-yl)oxy)-N-((6-(((3-oxabicyclo[3.1.0]hexan-6-yl)methyl)amino)-5-nitro-pyridin-3-yl)sulfonyl)-4-(2-((1R or 1S)-1-(2-cyclopropylphenyl)-2-aza-bicyclo[3.1.0]hexan-2-yl)-7-azaspiro [3.5]nonan-7-yl)benzamide], the IC50 was 6 nM in experiment [1], at most 1 nM in experiment [2] and at most 1 nM in experiment [3].

Take `O=C(NS(=O)(=O)c1cnc(NCC2CCOCC2)c([N+](=O)[O-])c1)c1ccc(N2CCC3(CC2)CC(N2CCC[C@@H]2c2ccccc2C2CC2)C3)cc1Oc1cnc2[nH]ccc2c1` [Example A-3b, (R)-2-((1H-pyrrolo[2,3-b]pyridin-5-yl)oxy)-4-(2-(2-(2-cyclopropyl-phenyl)pyrrolidin-1-yl)-7-azaspiro [3.5]nonan-7-yl)-N-((5-nitro-6-(((tetrahydro-2H-pyran-4-yl)methyl)amino)pyridin-3-yl)sulfonyl) benzamide]: the IC50 is 1 nM in experiment [1], at most 1 nM in experiment [2] and at most 1 nM in experiment [3].
